Reference: ChEMBL document CHEMBL3997855, “Discovery of Fevipiprant (NVP-QAW039), a Potent and Selective DP2 Receptor Antagonist for Treatment of Asthma” (ACS Med Chem Lett, 2017)

What was measured:
[1] = target: T1, Prostaglandin D2 receptor 2 (Homo sapiens, UniProt Q9Y5Y4); assay: Displacement of [3H]PGD2 from human DP2 receptor expressed in CHO cell membranes after 60 mins by scintillation proximity assay
T1 sequence (Q9Y5Y4 whole entry): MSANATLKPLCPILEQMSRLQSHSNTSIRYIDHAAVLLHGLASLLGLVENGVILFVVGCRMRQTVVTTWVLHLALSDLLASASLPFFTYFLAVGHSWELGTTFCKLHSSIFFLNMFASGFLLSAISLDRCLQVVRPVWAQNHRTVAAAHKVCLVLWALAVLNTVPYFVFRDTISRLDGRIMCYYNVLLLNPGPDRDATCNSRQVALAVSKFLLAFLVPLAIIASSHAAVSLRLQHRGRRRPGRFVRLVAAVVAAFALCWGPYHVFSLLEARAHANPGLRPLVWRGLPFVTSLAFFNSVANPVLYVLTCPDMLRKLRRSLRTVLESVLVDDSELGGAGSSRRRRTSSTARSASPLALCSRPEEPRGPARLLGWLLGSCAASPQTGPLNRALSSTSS

[2] = target: T1, Prostaglandin D2 receptor 2; assay: Antagonist activity at DP2 receptor in human isolated eosinophils assessed as inhibition of DK-PGD2-induced shape change preincubated for 5 mins followed by DK-PGD2 addition measured after 5 mins by flow cytometry
[3] = Volume of distribution at steady state in Wistar rat at 0.5 mg/kg, iv or 3 mg/kg, po by LC-MS/MS analysis; format: ADME, organism-based; settings: in vivo, read-out: Vdss
[4] = Half life in Wistar rat at 0.5 mg/kg, iv by LC-MS/MS analysis; format: ADME, organism-based; settings: in vivo
[5] = Oral bioavailability in Wistar rat at 3 mg/kg by LC-MS/MS analysis; format: ADME, organism-based; settings: in vivo
[6] = Clearance in Wistar rat at 0.5 mg/kg, iv or 3 mg/kg, po by LC-MS/MS analysis; format: ADME, organism-based; settings: in vivo
[7] = target: T1, Prostaglandin D2 receptor 2; assay: Displacement of [3H]NVP-QAW039 from human DP2 receptor expressed in CHO cell membranes by TopCount scintillation assay
[8] = target: T2, Prostaglandin D2 receptor 2 (Homo sapiens) (UniProt Q9Y5Y4)
T2 sequence (whole entry): T1 sequence (Q9Y5Y4 whole entry)
Description: Displacement of [3H]NVP-QAW039 from human DP2 receptor expressed in CHO cell membranes assessed as dissociation half life by TopCount scintillation assay

Structure (SMILES)	Ki [1] [nM]	IC50 [2] [nM]	Vd [3] [L/kg]	half-life [4] [h]	bioavailability [5] [%]	clearance [6] [mL/min/kg]	Kd [7] [nM]	T1/2 [8] [min]
Cc1c(CC(=O)O)c2c(Cl)ccnc2n1Cc1ccc(S(C)(=O)=O)cc1	356	80						
Cc1c(CC(=O)O)c2cccnc2n1Cc1ccc(C(F)(F)F)cc1C(F)(F)F		14						
CCc1ccc2c(CC(=O)O)c(C)n(Cc3ccc(S(C)(=O)=O)cc3)c2n1	47	6						
CCS(=O)(=O)c1ccc(Cn2c(C)c(CC(=O)O)c3cccnc32)cc1	50	4						

More lines, in order of falling IC50 [2], values ahead:

Ki [1] [nM]	IC50 [2] [nM]	Vd [3] [L/kg]	half-life [4] [h]	bioavailability [5] [%]	clearance [6] [mL/min/kg]	Kd [7] [nM]	T1/2 [8] [min]	Structure (SMILES)
31	4							Cc1c(CC(=O)O)c2cccnc2n1Cc1ccc(S(C)(=O)=O)c(C(F)(F)F)c1
4	1.7							Cc1c(CC(=O)O)c2cccnc2n1Cc1ccc(S(C)(=O)=O)cc1Cl
6	1.3	1.1	7.7	71	4.4	1.91	3.36	CCS(=O)(=O)c1ccc(Cn2c(C)c(CC(=O)O)c3cccnc32)c(Cl)c1
7	0.8	1.2	9.2	97	2.9			CCS(=O)(=O)c1ccc(Cn2c(C)c(CC(=O)O)c3cccnc32)c(C(F)(F)F)c1
